The values below come from PubChem BioAssay (NCI).

Values joined by “and” are separate entries in the source; they are usually repeats but may differ in a detail not shown here. Equal entries are not always repeated.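 Following 48 hours of exposure in 96-well plates, responses at five concentrations were used to interpolate endpoints linearly. Here, GI50 denotes the concentration required for 50% inhibition of growth. TGI: total growth inhibition.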 Where only a bound is given, the exact number is not on record here.

Common to all, as to assay: DTP human tumour cell line panel, 48 h
Experiment [1] relates to LOX IMVI melanoma.
Experiment [2] has as its system COLO 205 colon.
The subject of experiment [3] is HT29 colon.
The test system of experiment [4] is SNB-19 CNS.
The subject of experiment [5] is SR leukemia.
Experiment [6] relates to A498 renal.
The test system of experiment [7] is SN12C renal.
The subject of experiment [8] is CCRF-CEM leukemia.
The test system of experiment [9] is RXF 393 renal.
Experiment [10] has as its system MDA-MB-231 breast.

For `COc1cccc(/C=N/[N-]C(N)=O)c1[O-].[Ni+2].[OH3+].c1cnc2c(c1)ccc1cccnc12`, the TGI in experiment [1], in experiment [2], in [3], in [4], in experiment [5] and in experiment [6] was greater than 100 µM in each case. In addition, the TGI in [7] and in experiment [8] was greater than 100 µM in each case.

Regarding `[N-]=[N+]=NCc1cccc(Nc2cc(=O)[nH]c(=O)[nH]2)c1`, the TGI in [1], in experiment [2], in experiment [3], in [4], in [5] and in [6] was greater than 100 µM throughout. Besides, the TGI in experiment [7], in experiment [8] and in experiment [9] was greater than 100 µM each time.

In the case of `Oc1[nH]c2ccccc2c1N=Nc1nc(-c2ccc(Cl)c(Cl)c2)cs1`, the TGI in experiment [10], in experiment [1], in experiment [2], in experiment [3], in experiment [4] and in experiment [7] was greater than 100 µM throughout.

Consider `CN(C)CCSC(=Nc1ccccc1)N1CCCCC1`, for which the TGI (usually the concentration at which net growth stops) was 30 µM in experiment [1]; 28.8 µM in experiment [2]; 33 µM in experiment [3]; greater than 100 µM in experiment [4]; 97.3 µM in experiment [5]; 32.6 µM in experiment [7]. The values for the TGI in experiment [8] and in experiment [9] were greater than 100 µM and 34.7 µM, respectively.

For the molecule `Cc1ccc(C(C2C(=O)N(C)C(=O)N(C)C2=O)C(F)(F)C(=O)N(C)C)cc1` (configuration not stated), the TGI in experiment [10], in experiment [1], in experiment [2], in experiment [4], in [6] and in [8] was greater than 100 µM throughout. Also, in experiment [9], the TGI is greater than 100 µM.

For `N#Cc1c(N2CCCC2)ncn(Cc2ccccc2)c1=O`, the TGI in experiment [1], in experiment [2], in experiment [3], in experiment [4], in [5] and in experiment [6] was greater than 100 µM each time. Further, the TGI in experiment [7], in experiment [8] and in experiment [9] was greater than 100 µM throughout.

With `NCCNc1cccc2ccccc12`, the TGI in experiment [1], in [2], in experiment [3], in experiment [4], in experiment [5] and in experiment [6] was greater than 100 µM throughout. For the same molecule, the TGI in experiment [7] and in [9] was greater than 100 µM in each case.

Regarding `CCCCc1ccc(Nc2ncc3[nH]cnc3n2)cc1`, the TGI in [10] was 30.3 µM; in experiment [1] it was 37.6 µM; in [2] it was 36.7 µM; in experiment [3], 44.8 µM; in experiment [4], 44.4 µM; in experiment [6], 45.4 µM. Further, the results for the TGI in experiment [7], in experiment [8] and in experiment [9] were 48.9 µM, greater than 100 µM and 49.7 µM, respectively.

`COC(=O)/C=C1\CCC(C)(C(=O)NS(=O)(=O)c2ccc(C)cc2)C1(C)C` (configuration not stated): the TGI in experiment [10], in experiment [1], in experiment [2], in experiment [4], in experiment [6] and in [7] was greater than 100 µM in each case. Further, the TGI in [8] and in experiment [9] was greater than 100 µM each time.

Regarding `CC(CO)C1C[C@H](O)[C@@]2(C)CC(=O)C=C(CO)[C@@H]2C1` (some centres not stated), the TGI in experiment [10], in [1], in experiment [2], in experiment [3], in experiment [4] and in [6] was greater than 100 µM throughout. Besides, the TGI in [7] and in [9] was greater than 100 µM each time.

On to `c1ccc2c(c1)CCc1cc3cc4c(nc3nc1-2)-c1ccccc1CC4`, for which the TGI in experiment [1], in [2], in experiment [4], in [5], in [7] and in experiment [8] was greater than 100 µM throughout. The molecule further showed a TGI in experiment [9] greater than 100 µM.

With `COc1cccc(N(CN2CC=CC2=O)C(C)=O)c1`, the TGI in [10], in [1], in [2], in experiment [3], in experiment [4] and in experiment [6] was greater than 100 µM each time. The TGI in experiment [7], in experiment [8] and in experiment [9] was greater than 100 µM each time.

Turning to `N#C[S-].[Nd+3].c1ccc(-c2ccccn2)nc1.c1ccc(-c2ccccn2)nc1.c1ccc(-c2ccccn2)nc1`, the GI50 (commonly the concentration that inhibits growth by half) was 4.23 µM in experiment [1]; 18.6 µM in experiment [2]; 4.83 µM in experiment [3]; 10.7 µM in experiment [4]; 6.9 µM in [5]; 5.82 µM in [7]. Also, in experiment [9], the GI50 was 3.89 µM. Further, the TGI in experiment [1], in experiment [2], in experiment [3], in [4], in [5] and in experiment [7] was greater than 100 µM in each case. Besides, the TGI in experiment [9] worked out at 24.8 µM.

Turning to `Nc1ccccc1N/C=C\C(=O)C(Cl)(Cl)Cl`, the TGI in [10] was greater than 100 µM; in experiment [1], 29.7 µM; in experiment [2] it was 52.7 µM; in experiment [3] it was 34.6 µM; in [4], greater than 100 µM; in experiment [6], 38.9 µM. Further, the TGI in experiment [7] was 40.2 µM; in [8], greater than 100 µM; in experiment [9], 45.2 µM.

Consider `NC(=O)C#CC(N)=O`, for which the TGI in experiment [1] was 80.5 µM and 30.4 µM; in experiment [2], 30.8 µM and 29.8 µM and > 100 µM; in experiment [3], 131 µM and 35.4 µM and > 100 µM; in experiment [4], 241 µM and > 100 µM; in experiment [5] it was 36.3 µM; in experiment [6], 197 µM and 154 µM and > 100 µM. For the same molecule, the concentration for total growth inhibition (TGI) in [7] was 26.6 µM and > 100 µM; in experiment [9], 14.6 µM and 22.7 µM and 29.5 µM. Also, the GI50 is 15.4 µM and 15 µM and 73.6 µM in experiment [2]; 31.2 µM and 17 µM in experiment [3]; 71 µM in experiment [6]; 14.3 µM and 36.4 µM in experiment [7]; 3.62 µM and 10.2 µM and 14.6 µM in experiment [9].
